The source of these data is ChEMBL document CHEMBL1806450, “Synthesis of an aryloxy oxo pyrimidinone library that displays ALK-selective inhibition” (Bioorg Med Chem Lett, 2011).

pIC50: −log10 of the molar value.

Assay [1] has as its target ALK tyrosine kinase receptor (Homo sapiens, UniProt Q9UM73).
Description: Inhibition of 6xHis-tagged NPM-ALK using biotinylated-poly(GT) peptide as substrate after 60 mins
Assay [2] addresses Insulin receptor (Homo sapiens, UniProt P06213).
Description: Inhibition of recombinant IRK using biotinylated-poly(GT) peptide as substrate after 60 mins
For assay [3], the target named is Hepatocyte growth factor receptor (Homo sapiens, UniProt P08581).
Description: Inhibition of recombinant MET using biotinylated-poly(GT) peptide as substrate after 60 mins

As usually defined, the pIC50 is the IC50 on a negative log10 scale, so that one unit is a factor of ten. Read a high pIC50 as a small IC50.

ALK tyrosine kinase receptor, sequence (Q9UM73 whole entry): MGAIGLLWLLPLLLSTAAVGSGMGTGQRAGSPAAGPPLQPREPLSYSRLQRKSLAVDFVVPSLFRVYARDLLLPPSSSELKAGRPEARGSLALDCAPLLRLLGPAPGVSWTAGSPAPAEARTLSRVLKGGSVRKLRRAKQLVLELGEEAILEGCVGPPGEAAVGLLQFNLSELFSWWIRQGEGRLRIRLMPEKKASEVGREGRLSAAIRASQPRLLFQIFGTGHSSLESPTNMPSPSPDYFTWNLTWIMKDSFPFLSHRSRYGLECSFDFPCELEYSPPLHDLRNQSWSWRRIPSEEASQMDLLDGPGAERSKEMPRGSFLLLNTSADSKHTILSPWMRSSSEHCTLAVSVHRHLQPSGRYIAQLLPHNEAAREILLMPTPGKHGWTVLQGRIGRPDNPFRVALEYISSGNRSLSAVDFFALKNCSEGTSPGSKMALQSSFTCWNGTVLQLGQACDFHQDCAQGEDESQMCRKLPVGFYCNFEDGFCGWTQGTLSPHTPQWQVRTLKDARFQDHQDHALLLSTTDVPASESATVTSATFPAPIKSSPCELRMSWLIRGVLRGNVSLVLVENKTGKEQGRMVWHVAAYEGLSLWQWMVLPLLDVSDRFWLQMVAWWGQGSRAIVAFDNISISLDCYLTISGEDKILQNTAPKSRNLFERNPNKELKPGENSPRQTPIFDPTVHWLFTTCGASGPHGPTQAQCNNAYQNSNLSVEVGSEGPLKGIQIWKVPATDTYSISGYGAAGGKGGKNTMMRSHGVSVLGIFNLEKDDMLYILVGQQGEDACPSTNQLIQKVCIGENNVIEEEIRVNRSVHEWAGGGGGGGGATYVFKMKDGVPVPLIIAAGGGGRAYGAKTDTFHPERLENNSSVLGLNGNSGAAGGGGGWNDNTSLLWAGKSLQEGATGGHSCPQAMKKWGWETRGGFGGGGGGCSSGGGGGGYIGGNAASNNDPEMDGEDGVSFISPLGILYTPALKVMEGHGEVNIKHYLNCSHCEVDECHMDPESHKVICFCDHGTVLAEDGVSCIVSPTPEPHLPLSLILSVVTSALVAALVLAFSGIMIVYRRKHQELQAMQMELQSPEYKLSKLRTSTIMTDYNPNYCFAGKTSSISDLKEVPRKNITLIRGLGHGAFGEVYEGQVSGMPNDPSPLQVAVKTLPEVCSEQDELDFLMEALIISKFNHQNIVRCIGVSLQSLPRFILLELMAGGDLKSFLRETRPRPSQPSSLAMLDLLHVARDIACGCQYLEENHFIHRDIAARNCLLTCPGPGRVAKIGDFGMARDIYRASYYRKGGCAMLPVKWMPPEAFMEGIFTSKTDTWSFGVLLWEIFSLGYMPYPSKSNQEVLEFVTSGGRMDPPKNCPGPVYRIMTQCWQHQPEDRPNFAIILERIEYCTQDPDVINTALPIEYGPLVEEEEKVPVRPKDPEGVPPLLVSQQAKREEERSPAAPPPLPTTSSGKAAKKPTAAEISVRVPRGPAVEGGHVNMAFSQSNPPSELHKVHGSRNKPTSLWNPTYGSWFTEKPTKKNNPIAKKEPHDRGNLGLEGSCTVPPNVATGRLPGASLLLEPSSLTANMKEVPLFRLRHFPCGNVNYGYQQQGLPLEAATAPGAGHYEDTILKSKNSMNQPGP
Insulin receptor, sequence (P06213 28-758 limits assumed): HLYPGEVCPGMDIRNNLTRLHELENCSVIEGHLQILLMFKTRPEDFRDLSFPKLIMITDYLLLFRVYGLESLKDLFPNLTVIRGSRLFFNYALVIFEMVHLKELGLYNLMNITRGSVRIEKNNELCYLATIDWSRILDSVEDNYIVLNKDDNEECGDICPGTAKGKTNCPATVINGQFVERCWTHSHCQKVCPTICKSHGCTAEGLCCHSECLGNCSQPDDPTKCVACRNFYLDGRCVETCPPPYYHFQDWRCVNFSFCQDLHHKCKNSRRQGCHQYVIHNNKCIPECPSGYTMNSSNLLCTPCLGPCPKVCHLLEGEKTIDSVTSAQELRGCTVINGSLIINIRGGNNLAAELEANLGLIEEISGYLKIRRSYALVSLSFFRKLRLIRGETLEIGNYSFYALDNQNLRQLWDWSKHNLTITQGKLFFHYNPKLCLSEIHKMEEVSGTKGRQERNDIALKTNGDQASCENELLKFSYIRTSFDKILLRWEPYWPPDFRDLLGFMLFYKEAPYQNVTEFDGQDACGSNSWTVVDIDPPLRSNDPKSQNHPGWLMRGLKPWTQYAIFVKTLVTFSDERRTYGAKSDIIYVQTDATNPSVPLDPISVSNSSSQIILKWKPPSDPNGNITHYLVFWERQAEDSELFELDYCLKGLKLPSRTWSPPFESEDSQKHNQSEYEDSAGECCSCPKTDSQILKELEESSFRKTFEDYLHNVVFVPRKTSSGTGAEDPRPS
Insulin receptor, sequence (P06213 763-1382 limits assumed): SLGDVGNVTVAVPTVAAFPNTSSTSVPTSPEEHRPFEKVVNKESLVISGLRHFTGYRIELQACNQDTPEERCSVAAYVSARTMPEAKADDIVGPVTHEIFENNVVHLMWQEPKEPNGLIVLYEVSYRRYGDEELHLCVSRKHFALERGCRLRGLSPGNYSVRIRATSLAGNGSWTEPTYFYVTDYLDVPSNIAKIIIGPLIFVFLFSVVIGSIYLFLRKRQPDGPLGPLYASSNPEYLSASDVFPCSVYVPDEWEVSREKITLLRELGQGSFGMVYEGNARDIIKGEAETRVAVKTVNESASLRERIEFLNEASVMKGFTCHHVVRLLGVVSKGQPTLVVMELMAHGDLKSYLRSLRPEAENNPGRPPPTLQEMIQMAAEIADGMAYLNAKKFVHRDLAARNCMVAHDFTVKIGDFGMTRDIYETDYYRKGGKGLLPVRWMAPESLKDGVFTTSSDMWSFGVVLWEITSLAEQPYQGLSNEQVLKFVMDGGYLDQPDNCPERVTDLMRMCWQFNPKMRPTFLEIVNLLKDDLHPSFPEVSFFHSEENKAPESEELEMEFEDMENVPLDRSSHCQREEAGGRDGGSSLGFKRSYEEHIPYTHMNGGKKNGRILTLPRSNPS
Hepatocyte growth factor receptor, sequence (P08581 whole entry): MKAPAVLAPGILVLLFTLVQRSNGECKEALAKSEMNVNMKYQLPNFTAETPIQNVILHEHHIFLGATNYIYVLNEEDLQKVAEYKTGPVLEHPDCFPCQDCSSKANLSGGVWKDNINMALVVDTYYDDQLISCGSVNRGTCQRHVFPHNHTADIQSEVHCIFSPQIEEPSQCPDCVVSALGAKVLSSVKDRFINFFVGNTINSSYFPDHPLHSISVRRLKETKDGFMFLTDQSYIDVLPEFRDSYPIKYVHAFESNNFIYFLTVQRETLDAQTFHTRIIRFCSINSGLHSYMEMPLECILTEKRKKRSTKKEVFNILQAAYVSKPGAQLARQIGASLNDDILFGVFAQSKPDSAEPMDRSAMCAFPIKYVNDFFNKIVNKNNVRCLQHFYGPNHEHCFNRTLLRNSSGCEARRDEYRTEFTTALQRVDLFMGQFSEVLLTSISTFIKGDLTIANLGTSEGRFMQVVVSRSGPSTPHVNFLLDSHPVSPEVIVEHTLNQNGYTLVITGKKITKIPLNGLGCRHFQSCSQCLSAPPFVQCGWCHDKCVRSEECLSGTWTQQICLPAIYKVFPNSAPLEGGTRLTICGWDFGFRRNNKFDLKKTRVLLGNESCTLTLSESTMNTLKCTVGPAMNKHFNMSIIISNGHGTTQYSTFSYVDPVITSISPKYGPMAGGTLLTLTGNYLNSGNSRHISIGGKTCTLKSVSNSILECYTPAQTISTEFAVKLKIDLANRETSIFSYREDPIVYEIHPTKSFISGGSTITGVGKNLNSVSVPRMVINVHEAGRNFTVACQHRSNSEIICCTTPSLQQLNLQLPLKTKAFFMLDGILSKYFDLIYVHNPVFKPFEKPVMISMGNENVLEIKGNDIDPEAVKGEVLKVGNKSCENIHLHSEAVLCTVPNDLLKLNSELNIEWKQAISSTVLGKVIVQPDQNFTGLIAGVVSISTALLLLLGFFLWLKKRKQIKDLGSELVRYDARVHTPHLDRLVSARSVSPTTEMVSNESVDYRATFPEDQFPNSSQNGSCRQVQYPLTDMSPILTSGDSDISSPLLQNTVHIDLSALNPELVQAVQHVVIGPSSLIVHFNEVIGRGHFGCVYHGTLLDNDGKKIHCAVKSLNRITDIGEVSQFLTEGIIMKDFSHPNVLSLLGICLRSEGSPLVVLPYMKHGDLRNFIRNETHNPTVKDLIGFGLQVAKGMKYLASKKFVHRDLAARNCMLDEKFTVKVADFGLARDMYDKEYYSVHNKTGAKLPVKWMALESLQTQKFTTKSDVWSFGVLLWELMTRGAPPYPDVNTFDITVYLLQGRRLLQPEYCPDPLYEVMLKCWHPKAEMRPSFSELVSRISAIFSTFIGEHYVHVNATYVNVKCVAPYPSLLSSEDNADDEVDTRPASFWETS

Consider `COC(=O)c1cccc(Oc2nc[nH]c(=O)c2C2CC(C)=NN2C(C)=O)c1` (stereo not drawn), for which the values for the pIC50 in assay [1], in assay [2] and in assay [3] were 5.05, less than 4.40 and less than 4.40, respectively.
With `COC(=O)c1cccc(Oc2nc[nH]c(=O)c2/C=C/C(C)=O)c1`, the results for the pIC50 in assay [1], in assay [2] and in assay [3] were 5.52, less than 4.40 and 5.40, respectively.
On the same counts, the results for `CCOC(=O)/C=C/c1c(Oc2cccc(C(=O)OC)c2)nc[nH]c1=O` are less than 4.40, less than 4.40 and less than 4.40.
On the same counts, the results for `CC(=O)/C=C/c1c(Oc2ccc(C)cc2)nc[nH]c1=O` are less than 4.40, less than 4.40 and less than 4.40.
Consider `CCOC(=O)/C=C/c1c(Oc2ccc(C)cc2)nc[nH]c1=O`, for which the pIC50 in assay [1], in assay [2] and in assay [3] was less than 4.40 throughout.
In the case of `CC(=O)/C=C/c1c(Oc2ccc(C(C)(C)C)cc2)nc[nH]c1=O`, the pIC50 in assay [1], in assay [2] and in assay [3] was less than 4.40 throughout.
On to `CCOC(=O)/C=C/c1c(Oc2ccc(C(C)(C)C)cc2)nc[nH]c1=O`, for which the pIC50 in assay [1], in assay [2] and in assay [3] was less than 4.40 in each case.
As for `CC(=O)/C=C/c1c(Oc2ccccc2Cl)nc[nH]c1=O`, the pIC50 in assay [1], in assay [2] and in assay [3] was less than 4.40 throughout.
With `CCOC(=O)/C=C/c1c(Oc2ccccc2Cl)nc[nH]c1=O`, the pIC50 in assay [1], in assay [2] and in assay [3] was less than 4.40 in each case.
As for `CC(=O)/C=C/c1c(Oc2ccc(F)cc2)nc[nH]c1=O`, the pIC50 in assay [1], in assay [2] and in assay [3] was less than 4.40 throughout.
As for `CCOC(=O)/C=C/c1c(Oc2ccc(F)cc2)nc[nH]c1=O`, the pIC50 in assay [1], in assay [2] and in assay [3] was less than 4.40 in each case.
On to `COC(=O)c1cc(OC)ccc1Oc1nc[nH]c(=O)c1/C=C/C(C)=O`, for which the pIC50 in assay [1], in assay [2] and in assay [3] was less than 4.40 in each case.
`CCOC(=O)/C=C/c1c(Oc2ccc(OC)cc2C(=O)OC)nc[nH]c1=O`: the negative logarithm of the IC50 (pIC50) in assay [1], in assay [2] and in assay [3] was less than 4.40 in each case.
On to `COc1cccc(OC)c1Oc1nc[nH]c(=O)c1/C=C/C(C)=O`, for which the pIC50 in assay [1], in assay [2] and in assay [3] was less than 4.40 each time.
On to `CCOC(=O)/C=C/c1c(Oc2c(OC)cccc2OC)nc[nH]c1=O`, for which the pIC50 in assay [1], in assay [2] and in assay [3] was less than 4.40 each time.
On to `CC(=O)/C=C/c1c(Oc2cccc(C#N)c2)nc[nH]c1=O`, for which the pIC50 in assay [1], in assay [2] and in assay [3] was less than 4.40 throughout.
For `CCOC(=O)/C=C/c1c(Oc2cccc(C#N)c2)nc[nH]c1=O`, the pIC50 in assay [1], in assay [2] and in assay [3] was less than 4.40 each time.
As for `COc1cc(Cl)ccc1Oc1nc[nH]c(=O)c1/C=C/C(C)=O`, the pIC50 in assay [1], in assay [2] and in assay [3] was less than 4.40 in each case.
On to `CCOC(=O)/C=C/c1c(Oc2ccc(Cl)cc2OC)nc[nH]c1=O`, for which the pIC50 in assay [1], in assay [2] and in assay [3] was less than 4.40 each time.
As to `COc1cccc(Oc2nc[nH]c(=O)c2/C=C/C(C)=O)c1`, the pIC50 in assay [1], in assay [2] and in assay [3] was less than 4.40 in each case.
Take `CCOC(=O)/C=C/c1c(Oc2cccc(OC)c2)nc[nH]c1=O`: the pIC50 in assay [1], in assay [2] and in assay [3] was less than 4.40 each time.
Turning to `CC(=O)/C=C/c1c(Oc2c(Cl)cccc2Cl)nc[nH]c1=O`, the pIC50 in assay [1], in assay [2] and in assay [3] was less than 4.40 each time.
For the compound `CCOC(=O)/C=C/c1c(Oc2c(Cl)cccc2Cl)nc[nH]c1=O`, the pIC50 in assay [1], in assay [2] and in assay [3] was less than 4.40 each time.
In the case of `CC(=O)/C=C/c1c(Oc2ccc(NC(C)=O)cc2)nc[nH]c1=O`, the negative logarithm of the IC50 (pIC50) is 5.18 in assay [1], less than 4.40 in assay [2] and less than 4.40 in assay [3].
`CC(=O)/C=C/c1c(Oc2cccc(C(C)=O)c2)nc[nH]c1=O`: the pIC50 in assay [1] was 5.20; in assay [2] it was less than 4.40; in assay [3] it was less than 4.40.
In the case of `CC(=O)/C=C/c1c(Oc2ccc(O)cc2)nc[nH]c1=O`, the pIC50 was 5.12 in assay [1], less than 4.40 in assay [2] and less than 4.40 in assay [3].
With `CC(=O)/C=C/c1c(Oc2ccc(C#N)cc2)nc[nH]c1=O`, the pIC50 in assay [1] was 5.16; in assay [2], less than 4.40; in assay [3] it was less than 4.40.
With `COc1cc(Oc2nc[nH]c(=O)c2/C=C/C(C)=O)c(C(C)=O)cc1OC`, the pIC50 in assay [1] is 5.12; in assay [2] it was less than 4.40; in assay [3] it was less than 4.40.
In the case of `CC(=O)/C=C/c1c(Oc2ccccc2C(C)=O)nc[nH]c1=O`, the negative-log IC50 (pIC50) in assay [1], in assay [2] and in assay [3] was less than 4.40 in each case.
Turning to `CC(=O)/C=C/c1c(Oc2ccc(C(C)=O)c(F)c2)nc[nH]c1=O`, the pIC50 in assay [1], in assay [2] and in assay [3] was less than 4.40 in each case.
In the case of `COC(=O)c1ccc(OC)cc1Oc1nc[nH]c(=O)c1/C=C/C(C)=O`, the pIC50 in assay [1] is 4.99; in assay [2], less than 4.40; in assay [3], less than 4.40.
With `CC(=O)/C=C/c1c(Oc2ccc(C)cc2C(C)=O)nc[nH]c1=O`, the pIC50 in assay [1], in assay [2] and in assay [3] was less than 4.40 each time.
As to `CCOC(=O)c1ccccc1Oc1nc[nH]c(=O)c1/C=C/C(C)=O`, the pIC50 in assay [1] is 5.12; in assay [2] it was less than 4.40; in assay [3], less than 4.40.
Regarding `CC(=O)/C=C/c1c(Oc2c(C)cc(C(C)=O)cc2C)nc[nH]c1=O`, the pIC50 in assay [1], in assay [2] and in assay [3] was less than 4.40 in each case.
With `COC(=O)c1cc(Cl)ccc1Oc1nc[nH]c(=O)c1/C=C/C(C)=O`, the pIC50 in assay [1], in assay [2] and in assay [3] was less than 4.40 each time.
As to `CCCCCCOC(=O)c1ccccc1Oc1nc[nH]c(=O)c1/C=C/C(C)=O`, the pIC50 in assay [1], in assay [2] and in assay [3] was less than 4.40 throughout.
For the compound `CCOC(=O)c1ccc(Oc2nc[nH]c(=O)c2/C=C/C(C)=O)cc1`, the pIC50 in assay [1], in assay [2] and in assay [3] was less than 4.40 each time.
`CC(=O)/C=C/c1c(Oc2cc(C(F)(F)F)ccc2Cl)nc[nH]c1=O`: the pIC50 is 5.01 in assay [1], less than 4.40 in assay [2] and less than 4.40 in assay [3].
In the case of `COC(=O)c1cccc(Oc2nc[nH]c(=O)c2CCC(C)=O)c1`, the negative logarithm of the IC50 (pIC50) in assay [1], in assay [2] and in assay [3] was less than 4.40 each time.
`COC(=O)c1cccc(Oc2nc[nH]c(=O)c2C2CC(C)=NN2C)c1` (stereo not drawn): the pIC50 in assay [1], in assay [2] and in assay [3] was less than 4.40 each time.
For `COC(=O)c1cccc(Oc2nc[nH]c(=O)c2C2CC(C)=NN2)c1` (stereo not drawn), the pIC50 in assay [1], in assay [2] and in assay [3] was less than 4.40 each time.
Regarding `COC(=O)c1cccc(Oc2nc[nH]c(=O)c2-c2ccncc2)c1`, the pIC50 in assay [1], in assay [2] and in assay [3] was less than 4.40 throughout.
For `COC(=O)c1cccc(Oc2nc[nH]c(=O)c2-c2cccc(N)c2)c1`, the pIC50 in assay [1], in assay [2] and in assay [3] was less than 4.40 throughout.
For the compound `COC(=O)c1cccc(Oc2nc[nH]c(=O)c2-c2cccc(OC)c2)c1`, the pIC50 in assay [1], in assay [2] and in assay [3] was less than 4.40 in each case.
Turning to `COC(=O)c1cccc(Oc2nc[nH]c(=O)c2-c2ccccc2)c1`, the pIC50 in assay [1], in assay [2] and in assay [3] was less than 4.40 each time.
As to `COC(=O)c1cccc(Oc2nc[nH]c(=O)c2-c2cccc(C)c2)c1`, the pIC50 in assay [1], in assay [2] and in assay [3] was less than 4.40 throughout.
